Legend:
rh integrin α4β7 = biological target: T1, rh integrin α4β7 (Homo sapiens, UniProt P13612+P26010); experiment: α4β7-MAdCAM Competition ELISA; assay type: binding; conditions: thioether monomer peptides, Table 6; read-out: ELISA A4B7
T1 construct: purchased R&D Systems 5397-A30
T1 sequence (P13612 34-977 limits assumed): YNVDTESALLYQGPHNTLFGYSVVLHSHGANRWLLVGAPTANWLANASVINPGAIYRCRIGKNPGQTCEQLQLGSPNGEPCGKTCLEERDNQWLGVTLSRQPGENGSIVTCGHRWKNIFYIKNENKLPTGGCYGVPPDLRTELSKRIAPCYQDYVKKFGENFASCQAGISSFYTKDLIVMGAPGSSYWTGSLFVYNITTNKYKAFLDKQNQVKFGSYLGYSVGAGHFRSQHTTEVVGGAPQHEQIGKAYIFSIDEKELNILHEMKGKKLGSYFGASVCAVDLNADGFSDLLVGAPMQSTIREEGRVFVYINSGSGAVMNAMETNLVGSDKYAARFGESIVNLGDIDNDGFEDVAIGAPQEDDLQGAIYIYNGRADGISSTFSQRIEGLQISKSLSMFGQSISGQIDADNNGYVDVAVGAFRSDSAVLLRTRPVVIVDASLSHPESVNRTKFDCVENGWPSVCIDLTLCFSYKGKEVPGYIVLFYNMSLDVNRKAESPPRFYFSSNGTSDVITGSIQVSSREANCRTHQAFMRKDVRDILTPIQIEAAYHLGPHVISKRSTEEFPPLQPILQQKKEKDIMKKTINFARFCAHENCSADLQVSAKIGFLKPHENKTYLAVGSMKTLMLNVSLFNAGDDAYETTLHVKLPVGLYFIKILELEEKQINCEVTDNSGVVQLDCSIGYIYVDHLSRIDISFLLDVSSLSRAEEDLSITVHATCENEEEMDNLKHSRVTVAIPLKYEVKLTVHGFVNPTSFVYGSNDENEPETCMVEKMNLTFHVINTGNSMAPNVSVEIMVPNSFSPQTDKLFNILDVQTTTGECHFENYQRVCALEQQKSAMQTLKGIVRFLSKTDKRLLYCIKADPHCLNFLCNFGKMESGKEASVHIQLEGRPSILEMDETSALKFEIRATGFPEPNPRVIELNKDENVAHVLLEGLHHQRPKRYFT
T1 sequence (P26010 20-723 limits assumed): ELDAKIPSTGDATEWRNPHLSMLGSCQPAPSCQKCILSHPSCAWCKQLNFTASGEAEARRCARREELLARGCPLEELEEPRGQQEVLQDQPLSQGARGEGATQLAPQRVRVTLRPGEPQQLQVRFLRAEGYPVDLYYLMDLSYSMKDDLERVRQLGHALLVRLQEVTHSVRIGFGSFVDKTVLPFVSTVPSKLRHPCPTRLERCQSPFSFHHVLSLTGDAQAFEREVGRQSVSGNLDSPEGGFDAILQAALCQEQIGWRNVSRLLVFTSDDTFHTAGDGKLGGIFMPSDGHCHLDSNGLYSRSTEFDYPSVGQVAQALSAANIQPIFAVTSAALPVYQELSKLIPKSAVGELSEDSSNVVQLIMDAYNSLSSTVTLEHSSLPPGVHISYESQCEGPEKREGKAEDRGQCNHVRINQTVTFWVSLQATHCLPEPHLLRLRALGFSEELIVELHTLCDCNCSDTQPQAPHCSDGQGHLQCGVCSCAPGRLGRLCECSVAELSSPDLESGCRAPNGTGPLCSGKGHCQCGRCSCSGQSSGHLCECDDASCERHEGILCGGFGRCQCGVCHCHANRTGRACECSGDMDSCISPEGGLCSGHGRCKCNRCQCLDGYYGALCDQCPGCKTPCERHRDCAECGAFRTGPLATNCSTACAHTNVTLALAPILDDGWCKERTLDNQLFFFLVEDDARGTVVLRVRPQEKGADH
Method in brief: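 Recombinant human α4β7 captured on nickel-coated plates, then incubated 1 h at room temperature with serially diluted peptides (final top 10 μM) and 10 nM final MAdCAM-1 in Tris pH 7.6 buffer with 1 mM MnCl2 or MgCl2. Bound MAdCAM-1 detected with anti-human IgG1-HRP and TMB, absorbance at 450 nm.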

[1] = Simulated Intestinal Fluid (SIF) Stability Assay; assay type: in vitro ADME; conditions: pig, simulated intestinal fluid (SIF) with 1% porcine pancreatin, pH 6.5, porcine pancreatin, 37° C.; monomers, Table 6
Method in brief: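 Peptide at 22 μM final was incubated at 37° C in blank FaSSIF pH 6.5 with 1% porcine pancreatin. Timed samples were quenched in acetonitrile/methanol/formic acid with internal standard and analysed by LC-MS/MS. Half-lives came from first-order exponential fits of percent remaining.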

## CC(C)C[C@@H]1NC(=O)[C@H]([C@@H](C)O)NC(=O)[C@H](CC(=O)O)NC(=O)[C@H](CO)NC(=O)[C@H](CCCNC(=N)N)N(C)C(=O)c2ccccc2CSC(C)(C)[C@@H](C(=O)N[C@@H](Cc2ccc3ccccc3c2)C(=O)N[C@@H](CCC(=O)O)CC(=O)N[C@H](CCCCN)C(N)=O)NC1=O [compound 70]
Rh integrin α4β7
  IC50: < 25 nM
[1]
  half-life at 22 μM: > 3 h

From patent publication US20260217767A1, “NOVEL A4B7 THIOETHER PEPTIDE DIMER ANTAGONISTS” (Protagonist Therapeutics, Inc., priority 2014, published 2026)
